{"source": "paper PMC5749684", "about": "“Tetrahydrocarbazoles are a novel class of potent P-type ATPase inhibitors with antifungal activity” (PLoS ONE, 2018)", "key": {"[1]": {"tested_on": "S. cerevisiae cells", "assay": "Membrane potential study (DiBAC4(3))", "assay_type": "cell-based, Saccharomyces cerevisiae", "settings": "10 μM, 30 minutes exposure, compared to DMSO", "procedure": "S. cerevisiae cells were grown to mid-log phase, pelleted at 2,000 x g for 2 minutes and washed twice in buffer A (100 mM MOPS and 1 mM KCl adjusted with Trizma base to pH 7.0). Cells were then resuspended in buffer A to an OD600 of 0.2. For each well 50 μL of buffer A with 3.3 μg/mL propidium iodide (PI) (Thermo Fisher Scientific, catalog number P1304MP) and 1 μg/mL DiBAC4(3) (Sigma-Aldrich, catalog number D8189)) was mixed with 50 μL S. cerevisiae cell suspension and transferred to a 96 well plate containing 1 μL of inhibitor (in DMSO). A lysis control was performed with Reagent Y100 (ChemoMetec). Five thousand cells were measured per experiment with an exposure time of 1000 ms using a NucleoCounter NC-3000 (ChemoMetec). Dark field was used as the masking channel to select the yeast cells, and the DiBAC4(3) ([…]) and PI (ex 630 nm, em 740/60 nm) channels were used to measure the membrane potential and membrane integrity, respectively. Only cells with a pixel size of 10–40 were included in the analysis, to avoid analysis of non-cell artifacts."}, "[2]": {"tested_on": "yeasts Saccharomyces cerevisiae, Candida albicans, Candida krusei and Candida glabrata", "assay": "Fungal growth inhibition", "assay_type": "cell-based", "settings": "species not given; for MIC: antifungal activity", "text": "Fungal isolates were purchased from American Type Culture Collection, except for C. glabrata strain Cg003, which was kindly provided by Julius Subik, Comenius University in Bratislava, Slovak Republic. Cg003 is a clinical isolate, characterized to be resistant to fluconazole and itraconazole due to overexpression of the multidrug resistance efflux pumps Cdr1p and Cdr2p. Saccharomyces cerevisiae (ATCC 9763), Candida albicans (ATCC 90028), Candida albicans (SC5314), Candida glabrata (ATCC 90030), Candida glabrata (Cg003) and Candida krusei (ATCC 6258) were grown in Sabouraud broth (40 g/L D-glucose, 10 g/L peptone, pH 5.6) or YPD (10 g/L yeast extract, 20 g/L Bacto-peptone, 20 g/L glucose) medium to mid log phase, aliquoted into 20% (v/v) glycerol and cryopreserved as stocks at -80°C. For each growth assay, cells from these stocks were diluted in sterile water to OD600 = 0.025, which corresponds to a final starting inoculum of 0.5–2.5 x 10^5 CFU/mL. Growth assays were carried out by pipetting 3 μL compound dissolved in DMSO, 100 μL cell suspension and 97 μL 2 x RPMI media (20.8 g/L RPMI-1640 (Sigma-Aldrich catalog number R6504) 330 mM MOPS, 36 g/L glucose) into a microtiter plate and incubating for 24 h at 34°C, followed by OD measurement at 490 nm. The minimum inhibitory concentration (MIC) was defined as 50% growth inhibition of the microorganism as this measurement best represented the antifungal activity of the compounds. Standard errors were typically below 5%."}, "[3]": {"tested_on": "C. albicans cells", "assay": "Post-antifungal effect determination", "assay_type": "cell-based, Candida albicans", "settings": "1 h exposure of C. albicans; AMB 0.54 μM, VRC 2.8 μM, 6 and 8 20 μM", "procedure": "The post-antifungal effect (PAFE) of antifungal drugs on C. albicans was determined as described by others, with modifications. Briefly, 2 × 10^6 CFU/mL C. albicans cells were incubated in 1 mL RPMI-1640 media for 1 h at 30°C with gentle agitation in the presence of amphotericin B (0.54 μM), voriconazole (2.8 μM) or tetrahydrocarbazole compound (20 μM). Cells were subsequently washed in RPMI media 3 times by centrifugation (3 minutes, 5,000 x g) and finally re-suspended in 1 mL fresh RPMI medium and incubated at 30°C for 24 h. At various time intervals, a 100 μL aliquot was removed, serially diluted (10-fold) in saline (0.9% NaCl), and 30 μL aliquots were spread on YPD agar. The agar plates were incubated at 30°C for 48 h and the number of CFU/mL of culture was determined. C. albicans cells treated with DMSO (1%, v/v) served as a control. The number of CFU/mL obtained at specified time intervals was plotted against time (h) following compound removal. An increase in the CFU/mL of culture signifies growth and multiplication of yeast cells. The duration required for the antifungal drug-treated cells to recover from the inhibitory effect of the drug as indicated by an increase in CFU/mL of culture is defined as the PAFE."}, "[4]": {"tested_on": "C. albicans (SC5314) cells", "assay": "Time-kill assay", "assay_type": "cell-based, Candida albicans", "settings": "for Reduction in CFU after 3 h exposure: 20 μM, compared to DMSO treated controls; for Fungicidal or fungistatic activity in time-kill (in words): AMB 0.54 μM, VRC 2.8 μM, 6 and 8 20 μM", "procedure": "C. albicans (SC5314) cells (1 x 10^5 CFU/mL) were incubated in 10 mL RPMI-1640 media at 30°C with gentle agitation (150 rpm) in the presence of amphotericin B (0.5 μM), voriconazole (2.8 μM) or tetrahydrocarbazole compound (20 μM). At the indicated time points (0, 3, 6, and 24 h), a 100 μL aliquot was removed, serially diluted (10 fold) in saline (0.9% NaCl), and 30 μL aliquots were spread on YPD agar. CFU were counted after incubation at 30°C for 48 h. C. albicans cells treated with DMSO (1%, v/v) served as a control. 50 CFU/mL was selected as the lower limit of quantitation."}}}
{"smiles": "NC1CCCc2c1[nH]c1cc(OC(F)(F)F)ccc21", "note": "(stereo not shown) [Compound 4]", "values": [{"measurement": "DiBAC4(3) fluorescence signal, membrane depolarization (in words)", "setting": "[1]", "result": "No significant differences"}, {"measurement": "Antifungal activity (in words)", "setting": "[2]", "result": "weak antifungal activity"}]}
{"smiles": "CN1CCC(NC2CCCc3c2[nH]c2cc(OC(F)(F)F)ccc32)CC1", "note": "(stereo not shown) [Compound 5]", "values": [{"measurement": "DiBAC4(3) fluorescence signal, membrane depolarization (in words)", "setting": "[1]", "result": "No significant differences"}, {"measurement": "Antifungal activity (in words)", "setting": "[2]", "result": "weak antifungal activity"}]}
{"smiles": "FC(F)(F)Oc1ccc2c3c([nH]c2c1)C(NCc1ccc(Cl)cc1)CCC3", "note": "(stereo not shown) [Compound 6]", "values": [{"measurement": "Post-antifungal effect (PAFE)", "setting": "[3]", "result": 5, "unit": "h"}, {"measurement": "Reduction in CFU after 3 h exposure", "setting": "[4]", "result": "> 99", "unit": "%"}, {"measurement": "Fungicidal or fungistatic activity in time-kill (in words)", "setting": "[4]", "result": "fungistatic activity after 24 h of incubation"}]}
{"smiles": "FC(F)(F)Oc1ccc2c3c([nH]c2c1)C(NCCOc1ccc(Cl)cc1)CCC3", "note": "(stereo not shown) [Compound 8]", "values": [{"measurement": "Post-antifungal effect (PAFE)", "setting": "[3]", "result": 5, "unit": "h"}, {"measurement": "Reduction in CFU after 3 h exposure", "setting": "[4]", "result": "> 99", "unit": "%"}, {"measurement": "Fungicidal or fungistatic activity in time-kill (in words)", "setting": "[4]", "result": "fungistatic activity after 24 h of incubation"}]}
{"smiles": "Clc1ccc2[nH]c3c(c2c1)CCCC3NCc1ccc(-c2ccccc2)cc1", "note": "(stereo not shown) [Compound 10]", "values": [{"measurement": "DiBAC4(3) fluorescence signal, membrane depolarization (in words)", "setting": "[1]", "result": "slight increase"}]}
{"smiles": "Cn1c2c(c3cc(Cl)ccc31)CCCC2NCc1ccc(-c2ccccc2)cc1", "note": "(stereo not shown) [Compound 11]", "values": [{"measurement": "MIC", "setting": "[2]", "result": "> 20", "unit": "µM"}]}
{"smiles": "CN(Cc1ccc(-c2ccccc2)cc1)C1CCCc2c1[nH]c1ccc(Cl)cc21", "note": "(stereo not shown) [Compound 12]", "values": [{"measurement": "MIC", "setting": "[2]", "result": "> 20", "unit": "µM"}]}
